The test system of test [1] is S. aureus MSSA (ATCC 29213). The test is described as follows: MIC susceptibility testing. Format: cell-based, Staphylococcus aureus. Particulars: S. aureus ATCC 29213; for MIC: Staphylococcus aureus, read-out: (F) S. aureus (ATCC 29213) MIC.
Another test deals with T. cruzi. As to the kind of experiment: T. cruzi growth inhibition. It is filed as cell-based, Trypanosoma cruzi. Particulars: Trypanosoma cruzi; read-out: (E) T. cruzi EC50.
For a further test, the system named is C. parvum. As to the kind of experiment: C. parvum growth inhibition. It is filed as cell-based, Cryptosporidium parvum. To be noted: Cryptosporidium parvum; read-out: (J) C. parvum EC50.
For test [2], the system named is E. faecium VRE (ATCC 51559). As to the kind of experiment: MIC susceptibility testing. Format: cell-based, Enterococcus faecium. Particulars: E. faecium ATCC 51559; for MIC: Enterococcus faecium, read-out: (I) E. faecium (ATCC 51559) MIC. The text has this: Media and culture conditions. Mueller Hinton broth (MHB), cation adjusted Mueller Hinton broth (CA-MHB), and Brain Heart Infusion broth (BHI) were purchased from Becton Dickinson (Franklin Lakes, N.J.). Tryptic soy agar (TSA) plates, TSA with 5% sheep blood plates, and CA-MHB with 3% laked horse blood were purchased from Remel (San Diego, Calif.). MHB was used to assay all Staphylococcus aureus strains. CA-MHB was used for Staphylococcus epidermidis, Enterococcus faecalis, Enterococcus faecium, Escherichia coli, and Pseudomonas aeruginosa. CA-MHB supplemented with 3% laked horse blood was used for Streptococcus pneumoniae and Streptococcus pyogenes. Staphylococcus, Enterococcus, Escherichia, and Pseudomonas strains were cultured at 37° C. with ambient air. Streptococcus strains were cultured in 37° C. with 5% CO2. Separate conditions for radiolabeled precursor uptake assays are described below.
Susceptibility testing: Minimum inhibitory concentration (MIC) determinations were performed in triplicate in 96-well round bottom microtiter plates (Corning, Corning N.Y.) as described by the Clinical and Laboratory Standards Institute (CLSI). Serial two-fold dilutions of compounds were added to plates in 50 μL volumes. An additional 50 μL of media containing bacterial cells (1×10^6 CFUs/mL) was then added to each well. Maximum DMSO concentrations were 0.5%. Plates were incubated at 37° C. for at least 18 h before reading the susceptibility result by optical absorbance (OD600) using a BioTek ELx800. The lowest concentration causing ≥90% growth inhibition compared to the untreated control was recorded as the MIC (and also corresponded to the visual MIC). MICs were measured at least twice and the higher value (if different) was recorded herein.

The target of the next test is MetRS (C. parvum) (Cryptosporidium parvum, UniProt Q5CVN0). As to the kind of experiment: MetRS (C. parvum) enzyme inhibition. To be noted: read-out: (C) MetRS (C. parvum) IC50. It is filed as biochemical.
Chain of MetRS (C. parvum) (Q5CVN0 entry or part of it): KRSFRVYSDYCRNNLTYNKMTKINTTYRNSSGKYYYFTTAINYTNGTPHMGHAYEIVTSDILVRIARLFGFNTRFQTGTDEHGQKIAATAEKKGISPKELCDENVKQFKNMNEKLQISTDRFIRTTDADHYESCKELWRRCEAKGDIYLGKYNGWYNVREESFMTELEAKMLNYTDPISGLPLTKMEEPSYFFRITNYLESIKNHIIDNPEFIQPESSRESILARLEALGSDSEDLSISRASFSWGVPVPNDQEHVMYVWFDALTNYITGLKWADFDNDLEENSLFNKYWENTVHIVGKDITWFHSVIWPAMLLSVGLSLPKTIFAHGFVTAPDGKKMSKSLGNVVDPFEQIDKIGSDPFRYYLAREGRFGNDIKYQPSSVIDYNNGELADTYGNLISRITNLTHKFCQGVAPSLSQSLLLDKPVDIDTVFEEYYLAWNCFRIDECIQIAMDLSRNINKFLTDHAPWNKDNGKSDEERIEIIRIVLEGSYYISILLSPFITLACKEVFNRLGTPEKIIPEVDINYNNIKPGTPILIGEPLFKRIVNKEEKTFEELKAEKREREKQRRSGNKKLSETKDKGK
A further test relates to T. brucei. As to the kind of experiment: T. brucei growth inhibition. Format: cell-based, Trypanosoma brucei. To be noted: read-out: (D) T. brucei EC50.
For test [3], the system named is S. aureus MRSA (ATCC 33591). The test is described as follows: MIC susceptibility testing. Format: cell-based, Staphylococcus aureus. To be noted: Staphylococcus aureus, MRSA ATCC33591, read-out: (G) MRSA (ATCC33591) MIC. The gist of the method: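 CLSI broth microdilution in triplicate, 5×10^5 CFU/mL final, ≤0.5% DMSO; MHB for S. aureus, CA-MHB for E. coli and E. faecium, CA-MHB plus 3% laked horse blood for S. pyogenes (5% CO2).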

The target of another test is T1, MetRS (T. brucei) (Trypanosoma brucei brucei, UniProt Q38C91).
T1 sequence (Q38C91 1-773): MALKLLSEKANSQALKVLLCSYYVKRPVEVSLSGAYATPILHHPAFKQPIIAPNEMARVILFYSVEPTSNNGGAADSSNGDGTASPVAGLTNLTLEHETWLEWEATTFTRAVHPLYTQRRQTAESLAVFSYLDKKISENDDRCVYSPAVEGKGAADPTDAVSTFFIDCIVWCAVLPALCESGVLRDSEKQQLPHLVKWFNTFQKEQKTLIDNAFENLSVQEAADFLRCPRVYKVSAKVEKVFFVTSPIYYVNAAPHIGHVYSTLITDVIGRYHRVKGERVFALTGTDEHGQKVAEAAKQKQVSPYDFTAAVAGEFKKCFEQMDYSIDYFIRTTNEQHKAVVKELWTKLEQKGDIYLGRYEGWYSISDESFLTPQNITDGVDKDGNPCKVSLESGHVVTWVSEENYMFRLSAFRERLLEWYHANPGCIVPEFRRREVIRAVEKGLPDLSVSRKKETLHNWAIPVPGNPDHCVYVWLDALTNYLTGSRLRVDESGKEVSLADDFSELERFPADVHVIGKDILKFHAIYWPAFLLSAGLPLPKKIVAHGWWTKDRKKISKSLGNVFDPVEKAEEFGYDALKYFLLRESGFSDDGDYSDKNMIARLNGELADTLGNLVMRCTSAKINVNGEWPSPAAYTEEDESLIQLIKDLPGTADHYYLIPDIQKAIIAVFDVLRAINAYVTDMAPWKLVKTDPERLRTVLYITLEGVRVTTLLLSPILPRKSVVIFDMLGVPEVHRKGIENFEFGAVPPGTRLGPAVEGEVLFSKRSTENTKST
The test is described as follows: MetRS (T. brucei) enzyme inhibition. Format: biochemical.

In brackets after ≈: the same amount, converted by molar mass. Several values for one entry are separate records, joined by “and”; a condition that tells them apart may be missing. Identical values can stand only once. Like-named read-outs stand apart in the source and are kept apart here.

For the compound `O=c1n(Cc2nc3nc(Cl)ccc3[nH]2)cc(Cc2ccc(Cl)cc2Cl)n1CC1(O)CC1` [Compound 2225, 1-({5-chloro-1H-imidazo[4,5-b]pyridin-2-yl}methyl)-4-[(2,4-dichlorophenyl)-methyl]-3-[(1-hydroxycyclopropyl)methyl]-2,3-dihydro-1H-imidazol-2-one], the “(F) S. aureus (ATCC 29213) MIC” value in test [1] was 3.02 µg/mL. The MIC is above 2.5 µg/mL in test [1] and 1.52 µg/mL (≈ 3.17 µM) in test [2]. Also, the EC50 with T. cruzi was 245 nM; in the test with C. parvum, 1840 nM; in the test with T. brucei (Trypanosoma brucei), 14.5 nM; in the test with T. brucei, 26.9 nM. On MetRS (C. parvum), the IC50 was determined as 49.2 nM.

As to `COc1ccc(-c2cnn3c2CN(Cc2nc4nc(Cl)ccc4[nH]2)CC3)c(Cl)c1` [Compound 2172, 5-chlor0-2-((3-(2-chloro-4-methoxyphenyl)-6,7-dihydropyrazolo[1,5-a]pyrazin-5(4H)-yl)methyl)-1H-imidazo[4,5-b]pyridine], the figures for the MIC in test [3], in test [1] and in test [2] were 1.32 µg/mL (≈ 3.07 µM), 1.69 µg/mL (≈ 3.94 µM) and 0.467 µg/mL (≈ 1.09 µM), respectively. The “(F) S. aureus (ATCC 29213) MIC” value in test [1] stood at 0.898 µg/mL. Also, the EC50 in the test with T. cruzi amounted to 213 nM; in the test with T. brucei (Trypanosoma brucei), 29.3 nM; in the test on T. brucei, 35 nM. In addition, the IC50 on MetRS (T. brucei) and at MetRS (C. parvum) was below 40 nM each time.

Consider `O=c1n(Cc2nc3ccc(F)nc3[nH]2)cc(Cc2ccc(Cl)cc2Cl)n1C1CC1` [Compound 2070, 3-cyclopropyl-4-[(2,4-dichlorophenyl)methyl]-1-({5-fluoro-1H-imidazo[4,5-b]pyridin-2-yl}methyl)-2,3-dihydro-1H-imidazol-2-one], for which the “(F) S. aureus (ATCC 29213) MIC” value in test [1] worked out at 0.0371 µg/mL. In addition, the results for the MIC in test [1] and in test [2] were 0.0609 µg/mL (≈ 0.141 µM) and 0.0246 µg/mL (≈ 0.0569 µM), respectively. For the same compound, the EC50 was 133 nM in the test on T. cruzi and above 2000 nM in the test on C. parvum. Besides, the IC50 against MetRS (T. brucei) and on MetRS (C. parvum) was below 40 nM in each case.

Regarding `COc1ccc(Cc2cn(Cc3nc4c(C)c(Cl)ccc4[nH]3)c(=O)n2CC(C)(C)O)c(Cl)c1` [Compound 2248, 4-[(2-chloro-4-methoxyphenyl)methyl]-1-[(5-chloro-4-methyl-1H-1,3-benzodiazol-2-yl)methyl]-3-(2-hydroxy-2-methylpropyl)-2,3-dihydro-1H-imidazol-2-one], the EC50 is 491 nM with T. cruzi, above 2000 nM in the test on C. parvum and 81.8 nM in the test with T. brucei (Trypanosoma brucei). Moreover, the “(I) E. faecium (ATCC 51559) MIC” value in test [2] worked out at 2.23 µg/mL. Moreover, the MIC in test [2] is 1.98 µg/mL (≈ 4.05 µM). Further, the IC50 at MetRS (C. parvum) came out at 40.8 nM.

Turning to `CCNC(=O)Cn1c(C(=O)c2ccc(Cl)cc2Cl)cn(Cc2nc3nc(Cl)ccc3[nH]2)c1=O` [Compound 2227, 2-[3-({5-chloro-1H-imidazo[4,5-b]pyridin-2-yl}methyl)-5-(2,4-dichlorobenzoyl)-2-oxo-2,3-dihydro-1H-imidazol-1-yl]—N-ethylacetamide], the figures for the MIC in test [3], in test [1] and in test [2] were 0.482 µg/mL (≈ 0.949 µM), 1.07 µg/mL (≈ 2.11 µM) and 0.175 µg/mL (≈ 0.345 µM), respectively. Besides, the EC50 with T. cruzi is 819 nM; in the test on C. parvum, above 2000 nM; in the test with T. brucei (Trypanosoma brucei), below 0.91 nM; in the test on T. brucei, 1.47 nM. Besides, the IC50 on MetRS (C. parvum) is below 40 nM.

With `COC(=O)Cn1c(C(O)c2ccc(Cl)cc2Cl)cn(Cc2nc3ccc(Cl)nc3[nH]2)c1=O` (stereo not shown) [Compound 2217, methyl 2-(3-((5-chloro-3H-imidazo[4,5-b]pyridin-2-yl)methyl)-5-((2,4-dichlorophenyl)(hydroxy)methyl)-2-oxo-2,3-dihydro-1H-imidazol-1-yl)acetate], the “(F) S. aureus (ATCC 29213) MIC” value in test [1] is 3.12, μg/ml and 3.27 μg/ml. The figures for the MIC in test [1] and in test [2] were above 2.5 µg/mL and 0.691 µg/mL (≈ 1.39 µM), respectively. The EC50 with T. cruzi was 2600 nM; in the test with C. parvum it was above 2000 nM; in the test on T. brucei (Trypanosoma brucei), 11.6 nM. For the same compound, the values for the IC50 against MetRS (T. brucei) and at MetRS (C. parvum) were below 40 nM and 59.3 nM, respectively.

For `COC(=O)Nc1ccc(-c2ccc(OC)cc2Cl)n2cc(Cc3nc4ccc(Cl)cc4[nH]3)nc12` [Compound 2181, methyl N-{2-[(6-chloro-1H-1,3-benzodiazol-2-yl)methyl]-5-(2-chloro-4-methoxyphenyl)imidazo[1,2-a]pyridin-8-yl}carbamate], the MIC in test [3] was 0.822 µg/mL (≈ 1.66 µM); in test [2], 0.694 µg/mL (≈ 1.4 µM). For the same compound, the EC50 in the test on T. cruzi worked out at 538 nM; in the test on T. brucei (Trypanosoma brucei), 61.1 nM. Further, the IC50 is below 40 nM on MetRS (T. brucei) and 52.9 nM at MetRS (C. parvum).

For the compound `COc1ccc(-c2cccc3c2CN(Cc2nc4cc(Cl)ccc4[nH]2)C3=O)c(Cl)c1` [Compound 2232, 2-((5-chloro-1H-benzo[d]imidazol-2-yl)methyl)-4-(2-chloro-4-methoxyphenyl)isoindolin-1-one], the MIC is 0.448 µg/mL (≈ 1.02 µM) in test [3] and 0.415 µg/mL (≈ 0.947 µM) in test [2]. Moreover, the EC50 with T. cruzi was 244 nM; in the test with C. parvum, above 2000 nM; in the test on T. brucei (Trypanosoma brucei), 71.3 nM. Further, the IC50 on MetRS (C. parvum) came to 53.9 nM.

Turning to `CCOC(=O)Nn1c(C(=O)c2ccc(Cl)cc2Cl)cn(Cc2nc3ccc(Cl)nc3[nH]2)c1=O` [Compound 2244], the figures for the MIC in test [3] (ATCC33591|MRSA), in test [1] (ATCC29213|MSSA) and in test [2] (ATCC51559|VRE) were 1.57 µg/mL (≈ 3.08 µM), 1.66 µg/mL (≈ 3.26 µM) and 0.531 µg/mL (≈ 1.04 µM), respectively. For the same compound, in test [1], the “(F) S. aureus (ATCC 29213) MIC” value came out at 2.21 µg/mL. Moreover, the EC50 is 541 nM with T. cruzi and above 2000 nM with C. parvum. Besides, in test [2], the “(I) E. faecium (ATCC 51559) MIC” value is 0.555 µg/mL. The IC50 at MetRS (C. parvum) is below 40 nM.

With `CC(C)(N)Cn1c(Cc2ccc(Cl)cc2Cl)cn(Cc2nc3nc(Cl)ccc3[nH]2)c1=O` [Compound 2212, 5-(2,4-dichlorobenzyl)-1-(2-amin0-2-methylpropyl)-3-((5-chloro-1H-imidazo[4,5-b]pyridin-2-yl)methyl)-1H-imidazol-2(3H)-one], in test [1], the “(F) S. aureus (ATCC 29213) MIC” value is 1.33, μg/ml and 1.65 μg/ml. Besides, the MIC came out at 1.72 µg/mL (≈ 3.58 µM) in test [1] and 0.512 µg/mL (≈ 1.07 µM) in test [2]. The EC50 in the test with T. cruzi is 236 nM; in the test on C. parvum, above 2000 nM; in the test on T. brucei (Trypanosoma brucei), 3.03 nM. The results for the IC50 at MetRS (T. brucei) and at MetRS (C. parvum) were below 40 nM and 45.7 nM, respectively. Moreover, in test [2], the “(I) E. faecium (ATCC 51559) MIC” value came out at 0.426 µg/mL.

As for `NC(=O)Cn1c(C(=O)c2ccc(Cl)cc2Cl)cn(Cc2nc3ccc(Cl)nc3[nH]2)c1=O` [Compound 2234, 2-[3-({5-chloro-1H-imidazo[4,5-b]pyridin-2-yl}methyl)-5-(2,4-dichlorobenzoyl)-2-oxo-2,3-dihydro-1H-imidazol-1-yl]acetamide], the MIC in test [3] was above 8 µg/mL; in test [2], 1.06 µg/mL (≈ 2.21 µM). For the same compound, the EC50 in the test on T. cruzi is 2100 nM; in the test with C. parvum, above 2000 nM; in the test with T. brucei (Trypanosoma brucei), 9.17 nM; with T. brucei, 7.98 nM. Besides, the IC50 on MetRS (C. parvum) was below 40 nM.

The term MIC denotes the least concentration at which growth counts as inhibited. Usually EC50 stands for the midpoint of the concentration-response curve. The term IC50 denotes the concentration needed to halve the response being measured.

The record behind these values is US11584744B2 (UNIVERSITY OF WASHINGTON, priority 2017, dated 2023).
